# Reference: patent US4138554A, “7-[D-α-(4-Hydroxy-1,5-naphthyridine-3-carboxamido)-α-phenyl (and p-hydroxyphenyl)acetamido]-3-carbamoyloxymethyl-3-cephem-4-carboxylic acids” (priority 1977, dated 1979)
# Read-outs that look alike come from different tables or passages of the source.
# Assays:
# Format in all cases: cell-based
# [1] = system: P. vulgaris; test: MIC by serial two-fold agar dilution (Mueller-Hinton agar), P. vulgaris; conditions: Proteus vulgaris; P. vulgaris, Table 1; read-out: MIC
# Method: (§1) Minimum inhibitory concentrations (MIC) of BB-S520 were determined by serial two-fold agar dilution method using Steers' apparatus on Meuller-Hinton agar plate against 31 test organisms for the primary screening and also against 61 strains of Pseudomonas aeruginosa for the secondary evaluation. The results are shown in Table 1 and Table 2 along with those of BB-S514 and sulbenicillin.
# (§2) Minimum inhibitory concentrations (MIC) of cephalosporins in the present study were determined by serial two-fold agar dilution method using Steers' apparatus on Mueller-Hinton agar plate against 31 test organisms for the primary screening and also against 61 strains of Pseudomonas aeruginosa for the secondary evaluation.
# [2] = system: E. coli; test: MIC by serial two-fold agar dilution (Mueller-Hinton agar), E. coli; conditions: Escherichia coli, Table 1
# Method: as §1, §2
# [3] = system: Pseudomonas aeruginosa; test: MIC by agar dilution against 61 strains of Pseudomonas aeruginosa, secondary evaluation; conditions: for MIC: Pseudomonas aeruginosa, read-out: MIC
# Method: as §1, §2
# [4] = system: S. aureus; test: MIC by serial two-fold agar dilution (Mueller-Hinton agar), S. aureus; conditions: Staphylococcus aureus, read-out: MIC
# Method: as §1, §2
# [5] = system: K. pneumoniae; test: MIC by serial two-fold agar dilution (Mueller-Hinton agar), K. pneumoniae; conditions: Klebsiella pneumoniae, K. pneumoniae, Table 1
# Method: as §1, §2
# [6] = system: E. cloacae; test: MIC by serial two-fold agar dilution (Mueller-Hinton agar), E. cloacae; conditions: Enterobacter cloacae, Table 1
# Method: as §1, §2
# [7] = system: Pseudomonas (6 strains); test: Mean % relative activity (MIC) vs sulbenicillin, Pseudomonas (6 strains); conditions: Pseudomonas (6 strains), from geometric means of MICs in Table 1
# Method: as §1, §2
# [8] = system: S. enteritidis; test: MIC by serial two-fold agar dilution (Mueller-Hinton agar), S. enteritidis; conditions: Salmonella enterica; S. enteritidis, Table 1; read-out: MIC
# Method: as §1, §2
smiles,measurement,setting,value
CC(=O)OCC1=C(C(=O)O)N2C(=O)C(NC(=O)C(NC(=O)c3cnc4cccnc4c3O)c3ccccc3)C2SC1 (stereo not drawn) [BB-S514],MIC,[1],25 µg/mL
same,MIC,"[2]; E. coli Juhl, read-out: MIC",12.5 µg/mL
same,MIC,"[2]; E. coli NIHJ, read-out: MIC",0.1 µg/mL
same,MIC,"[2]; E. coli, unnamed strain (3rd E. coli line)",0.4 µg/mL
same,MIC,"[2]; E. coli, unnamed strain (4th E. coli line), read-out: MIC",0.4 µg/mL
same,MIC,"[2]; E. coli, unnamed strain (5th E. coli line), read-out: MIC",> 100 µg/mL
same,MIC,"[2]; E. coli, unnamed strain (6th E. coli line), read-out: MIC",6.3 µg/mL
same,MIC,"[2]; E. coli, unnamed strain (7th E. coli line), read-out: MIC",> 100 µg/mL
same,MIC,"[2]; E. coli, unnamed strain (8th E. coli line), read-out: MIC",12.5 µg/mL
same,MIC,"[2]; E. coli, unnamed strain (9th E. coli line), read-out: MIC",0.8 µg/mL
same,Mean % Relative Activity (Sulbenicillin = 100%),"[3]; Ps. aeruginosa (61 strains), from geometric means of MICs in Table 2",480%
same,MIC,"[3]; BBRI Pa-No. 1, D15, Table 2",6.3 µg/mL
same,MIC,"[3]; BBRI Pa-No. 2, VA, Table 2",6.3 µg/mL
same,MIC,"[3]; BBRI Pa-No. 3, 1449VA, Table 2",3.1 µg/mL
same,MIC,"[3]; BBRI Pa-No. 4, H9 D113, Table 2",12.5 µg/mL
same,MIC,"[3]; BBRI Pa-No. 5, M4865KC, Table 2",6.3 µg/mL
same,MIC,"[3]; BBRI Pa-No. 6, No. 5, Table 2",25 µg/mL
same,MIC,"[3]; BBRI Pa-No. 7, Table 2",12.5 µg/mL
same,MIC,"[3]; BBRI Pa-No. 8, Table 2",6.3 µg/mL
same,MIC,"[3]; BBRI Pa-No. 9, Yale, Table 2",6.3 µg/mL
same,MIC,"[3]; BBRI Pa-No. 10, Table 2",50 µg/mL
same,MIC,"[3]; BBRI Pa-No. 11, Table 2",6.3 µg/mL
same,MIC,"[3]; BBRI Pa-No. 12, Table 2",6.3 µg/mL
same,MIC,"[3]; BBRI Pa-No. 14, Table 2",6.3 µg/mL
same,MIC,"[3]; BBRI Pa-No. 15, Table 2",12.5 µg/mL
same,MIC,"[3]; BBRI Pa-No. 16, No. 130, Table 2",1.6 µg/mL
same,MIC,"[3]; BBRI Pa-No. 17, H6 D114, Table 2",3.1 µg/mL
same,MIC,"[3]; BBRI Pa-No. 18, H8 D121, Table 2",6.3 µg/mL
same,MIC,"[3]; BBRI Pa-No. 19, Table 2",3.1 µg/mL
same,MIC,"[3]; BBRI Pa-No. 20, Table 2",6.3 µg/mL
same,MIC,"[3]; BBRI Pa-No. 21, Table 2",6.3 µg/mL
same,MIC,"[3]; BBRI Pa-No. 23, Table 2",6.3 µg/mL
same,MIC,"[3]; BBRI Pa-No. 24, Table 2",50 µg/mL
same,MIC,"[3]; BBRI Pa-No. 25, Table 2",1.6 µg/mL
same,MIC,"[3]; BBRI Pa-No. 26, Ps32, Table 2",3.1 µg/mL
same,MIC,"[3]; BBRI Pa-No. 28, CPH10527/72, Table 2",6.3 µg/mL
same,MIC,"[3]; BBRI Pa-No. 29, D122, Table 2",3.1 µg/mL
same,MIC,"[3]; BBRI Pa-No. 30, Table 2",6.3 µg/mL
same,MIC,"[3]; BBRI Pa-No. 31, Table 2",1.6 µg/mL
same,MIC,"[3]; BBRI Pa-No. 32, Table 2",6.3 µg/mL
same,MIC,"[3]; BBRI Pa-No. 33, Table 2",25 µg/mL
same,MIC,"[3]; BBRI Pa-No. 34, Table 2",6.3 µg/mL
same,MIC,"[3]; BBRI Pa-No. 35, Table 2",25 µg/mL
same,MIC,"[3]; BBRI Pa-No. 36, Table 2",0.4 µg/mL
same,MIC,"[3]; BBRI Pa-No. 37, Table 2",6.3 µg/mL
same,MIC,"[3]; BBRI Pa-No. 38, Table 2",12.5 µg/mL
same,MIC,"[3]; BBRI Pa-No. 39, Table 2",3.1 µg/mL
same,MIC,"[3]; BBRI Pa-No. 41, Table 2",6.3 µg/mL
same,MIC,"[3]; BBRI Pa-No. 42, Table 2",12.5 µg/mL
same,MIC,"[3]; BBRI Pa-No. 43, Table 2",6.3 µg/mL
same,MIC,"[3]; BBRI Pa-No. 44, Table 2",6.3 µg/mL
same,MIC,"[3]; BBRI Pa-No. 51, Table 2",6.3 µg/mL
same,MIC,"[3]; BBRI Pa-No. 52, Table 2",6.3 µg/mL
same,MIC,"[3]; BBRI Pa-No. 53, Table 2",6.3 µg/mL
same,MIC,"[3]; BBRI Pa-No. 54, Table 2",6.3 µg/mL
same,MIC,"[3]; BBRI Pa-No. 55, Table 2",6.3 µg/mL
same,MIC,"[3]; BBRI Pa-No. 56, Table 2",6.3 µg/mL
same,MIC,"[3]; BBRI Pa-No. 57, Table 2",3.1 µg/mL
same,MIC,"[3]; BBRI Pa-No. 58, Table 2",12.5 µg/mL
same,MIC,"[3]; BBRI Pa-No. 59, Table 2",6.3 µg/mL
same,MIC,"[3]; BBRI Pa-No. 60, Table 2",3.1 µg/mL
same,MIC,"[3]; BBRI Pa-No. 61, Table 2",6.3 µg/mL
same,MIC,"[3]; BBRI Pa-No. 62, Table 2",12.5 µg/mL
same,MIC,"[3]; BBRI Pa-No. 64, Table 2",6.3 µg/mL
same,MIC,"[3]; BBRI Pa-No. 65, Table 2",3.1 µg/mL
same,MIC,"[3]; BBRI Pa-No. 66, Table 2",3.1 µg/mL
same,MIC,"[3]; BBRI Pa-No. 67, Table 2",12.5 µg/mL
same,MIC,"[3]; BBRI Pa-No. 68, Table 2",12.5 µg/mL
same,MIC,"[3]; BBRI Pa-No. 69, Table 2",25 µg/mL
same,MIC,"[3]; BBRI Pa-No. 70, K-Ps102 (CR-102), Table 2",6.3 µg/mL
same,MIC,"[3]; GN315, BBRI Pa-No. 27, GN315, Table 2",6.3 µg/mL
same,MIC,"[3]; GN4925, BBRI Pa-No. 45, GN4925, Table 2",12.5 µg/mL
same,MIC,"[4]; S. aureus BX-1633, Table 1",3.1 µg/mL
same,MIC,"[4]; S. aureus Smith (1st line), Table 1",3.1 µg/mL
same,MIC,"[4]; S. aureus Smith (2nd line), Table 1",6.3 µg/mL
same,MIC,"[4]; S. aureus, unnamed strain (4th S. aureus line), Table 1",25 µg/mL
same,MIC,"[4]; S. aureus, unnamed strain (5th S. aureus line), Table 1",6.3 µg/mL
same,MIC,"[4]; S. aureus, unnamed strain (6th S. aureus line), Table 1",> 100 µg/mL
same,MIC,[5],6.3 µg/mL
same,MIC,[6]; E. cloacae (1st line),25 µg/mL
same,MIC,[6]; E. cloacae (2nd line),50 µg/mL
same,MIC,[6]; E. cloacae (3rd line),25 µg/mL
same,Mean % Relative Activity (Sulbenicillin = 100%),[7],283%
same,MIC,[8],6.3 µg/mL
